Assay results: patent publication US20210322582A1, “RADIOACTIVE IMIDAZOTHIADIAZOLE DERIVATIVE COMPOUND” (Nihon Medi-Physics Co., Ltd., priority 2018, published 2021)

Legend:
Assay type in all cases: in vivo
[1] = system: HT-29 tumor; test: SPECT/CT imaging using [^111In]ITDA1; conditions: HT-29 cancer-bearing mouse, 24 hours from administration
Method: (§1) HT-29 cells (5×10^6 cells/mouse) and MDA-MB-231 cells (5×10^6 cells/mouse) were subcutaneously inoculated into the left shoulders of 5-week old male BALB/c nude mice, respectively. A saline solution (150 μL) in which [^111In]ITDA1 (23.8 to 26.2 MBq) had been dissolved was administered to each of the cancer-bearing mice via the tail vein. Each of the mice was subjected to SPECT/CT imaging after the lapse of 1, 4, 8, and 24 hours from the administration. U-SPECT-II/CT (single-pinhole collimator 0.6 or 1.0 mm, resolution: 0.45 mm) manufactured by Milab was used as the SPECT/CT device, and data were collected for 60 minutes in 1, 4, 8, and 24 hours from the administration.
(§2) The collected data were reconstructed by a three-dimensional ordered-subset expectation maximization (3D-OSEM) method. The results of HT-29 cancer-bearing mouse are shown in FIG. 6A, and the results of MDA-MB-231 cancer-bearing mouse are shown in FIG. 6B.

[2] = system: MDA-MB-231 tumor; test: SPECT/CT imaging using [^111In]ITDA1; conditions: MDA-MB-231 cancer-bearing mouse, 24 hours from administration
Method: as §1, §2

[3] = system: MDA-MB-231-transplanted tumor; test: Biodistribution of [^111In]ITDA3 in MDA-MB-231 cancer-bearing mouse; conditions: MDA-MB-231 mouse, 24 hours after administration
Method: HT-29 cells and MDA-MB-231 cells (5×10^6 cells/mouse) were subcutaneously inoculated into the left shoulders of 5-week old male BALB/c nude mice, respectively. A saline solution (100 μL) in which[^111In]ITDA3 (40 kBq) had been dissolved was administered to each of the cancer-bearing mice (n=5) via the tail vein. The HT-29 cancer-bearing mice were slaughtered after the lapse of 1, 4, and 24 hours from the administration, the MDA-MB-231 cancer-bearing mouse was slaughtered after the lapse of 24 hours from the administration, and the blood, spleen, pancreas, stomach, intestines, kidney, liver, heart, lungs, brain, HT-29 or MDA-MB-231-transplanted tumor, and muscle were recovered from each of the mice. The weight of each organ was measured, and the amount of radioactivity in each organ was measured by using a gamma counter. The accumulation of radioactivity in each organ except for stomach was expressed by % ID (injected dose)/g obtained by dividing the ratio of the amount of radioactivity of each organ to the administered amount of radioactivity by the organ weight. The stomach was expressed by % ID (injected dose).

Row | Accumulation of radioactivity in the transplanted tumor (SPECT/CT) [1] | Accumulation in the transplanted tumor (SPECT/CT) [2] | Accumulation of radioactivity: Blood [3] [% ID/g] | Accumulation of radioactivity: Brain [3] [% ID/g] | Accumulation of radioactivity: Heart [3] [% ID/g] | Accumulation of radioactivity: Intestines [3] [% ID/g] | Accumulation of radioactivity: Kidney [3] [% ID/g] | Accumulation of radioactivity: Liver [3] [% ID/g] | Accumulation of radioactivity: Lungs [3] [% ID/g] | Accumulation of radioactivity: MDA-MB-231 tumor [3] [% ID/g] | Accumulation of radioactivity: Muscle [3] [% ID/g] | Accumulation of radioactivity: Pancreas [3] [% ID/g] | Accumulation of radioactivity: Spleen [3] [% ID/g] | Accumulation of radioactivity: Stomach [3] [% ID] | Tumor/blood [3] | Tumor/muscle [3] | SMILES
1 | highly observed | not observed | – | – | – | – | – | – | – | – | – | – | – | – | – | – | NS(=O)(=O)c1nn2cc(-c3ccc(NC(=O)CN4CCN(CC(=O)O)CCN(CC(=O)O)CCN(CC(=O)O)CC4)cc3)nc2s1.[111In+3] [[^111In]ITDA1, [^111In]indium(III)2,2′,2″-(10-(2-oxo-2-((4-(2-sulfamoylimidazo[2,1-b][1,3,4]thiadiazol-6-yl)phenyl)amino)ethyl)-1,4,7,10-tetraazacyclododecan-1,4,7-triyl) triacetic acid]
2 | – | – | 0.06 ± 0.02 | 0.24 ± 0.04 | 1.24 ± 0.19 | 6.66 ± 0.86 | 49.65 ± 5.04 | 2.96 ± 0.64 | 0.93 ± 0.18 | 0.72 ± 0.27 | 0.99 ± 0.26 | 2.00 ± 0.54 | 0.12 ± 0.02 | 5.49 ± 0.55 | 11.97 ± 6.08 | 0.77 ± 0.32 | NS(=O)(=O)c1nn2cc(-c3ccc(NC(=O)CCC(C(=O)O)N4CCN(CC(=O)[O-])CCN(CC(=O)[O-])CCN(CC(=O)[O-])CC4)cc3)nc2s1.[111In+3] (stereo not shown) [[^111In]ITDA3]
